{
  "source": "paper PMC4508061",
  "about": "“Selectivity Profiling and Biological Activity of Novel β-Carbolines as Potent and Selective DYRK1 Kinase Inhibitors” (PLoS ONE, 2015)",
  "key": {"LIMK1": {"target": "LIMK1 (Homo sapiens, UniProt P53667)", "test": "ProQinase radiometric kinase panel", "conditions": "mean of 2 exp.", "protocol": "Gini coefficients were calculated and the Lorenz curve (Fig 3B) was plotted by applying the Microsoft Excel spreadsheet provided by Graczyk [44].\nradiometric protein kinase assays."}, "PKC-delta": {"target": "PKC-delta (Homo sapiens, UniProt Q05655)", "test": "ProQinase radiometric kinase panel", "conditions": "mean of 2 exp."}, "TYK2": {"target": "TYK2 (Homo sapiens, UniProt P29597)", "sequence (P29597 whole entry)": "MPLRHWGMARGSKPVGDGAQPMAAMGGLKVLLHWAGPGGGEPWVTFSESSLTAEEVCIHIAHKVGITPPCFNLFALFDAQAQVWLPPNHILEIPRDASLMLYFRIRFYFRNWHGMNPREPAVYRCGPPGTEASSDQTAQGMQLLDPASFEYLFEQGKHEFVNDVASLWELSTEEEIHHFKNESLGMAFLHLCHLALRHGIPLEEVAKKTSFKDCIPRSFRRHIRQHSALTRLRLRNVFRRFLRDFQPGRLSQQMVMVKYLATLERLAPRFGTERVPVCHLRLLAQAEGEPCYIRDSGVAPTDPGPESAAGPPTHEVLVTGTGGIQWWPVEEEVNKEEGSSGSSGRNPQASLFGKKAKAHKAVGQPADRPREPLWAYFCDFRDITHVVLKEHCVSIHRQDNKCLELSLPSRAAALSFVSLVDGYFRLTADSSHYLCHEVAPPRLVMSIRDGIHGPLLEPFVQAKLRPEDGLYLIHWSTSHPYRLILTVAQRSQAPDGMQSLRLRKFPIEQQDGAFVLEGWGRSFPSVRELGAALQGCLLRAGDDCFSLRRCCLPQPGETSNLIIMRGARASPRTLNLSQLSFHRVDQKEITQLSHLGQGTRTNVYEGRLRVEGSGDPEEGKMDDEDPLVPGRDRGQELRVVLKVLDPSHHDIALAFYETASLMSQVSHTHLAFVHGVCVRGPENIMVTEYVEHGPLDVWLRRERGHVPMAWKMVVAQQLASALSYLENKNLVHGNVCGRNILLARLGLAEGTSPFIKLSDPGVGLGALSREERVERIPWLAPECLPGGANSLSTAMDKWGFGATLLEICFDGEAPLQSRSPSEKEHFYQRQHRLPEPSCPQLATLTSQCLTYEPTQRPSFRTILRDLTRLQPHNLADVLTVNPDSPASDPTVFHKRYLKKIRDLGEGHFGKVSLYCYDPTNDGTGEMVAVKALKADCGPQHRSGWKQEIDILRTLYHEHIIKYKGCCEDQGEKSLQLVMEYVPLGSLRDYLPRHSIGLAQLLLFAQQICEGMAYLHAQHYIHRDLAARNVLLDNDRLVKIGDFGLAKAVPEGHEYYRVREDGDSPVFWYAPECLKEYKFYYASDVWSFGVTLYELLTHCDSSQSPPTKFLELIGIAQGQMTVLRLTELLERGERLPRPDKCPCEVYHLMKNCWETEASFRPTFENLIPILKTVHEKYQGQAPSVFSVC", "test": "ProQinase radiometric kinase panel", "conditions": "mean of 2 exp."}, "SYK": {"target": "SYK (Homo sapiens, UniProt P43405)", "test": "ProQinase radiometric kinase panel", "conditions": "mean of 2 exp."}, "SLK": {"target": "SLK (Homo sapiens, UniProt Q9H2G2)", "test": "ProQinase radiometric kinase panel", "conditions": "mean of 2 exp."}, "AMPK-alph1": {"target": "AMPK-alph1 (Homo sapiens, UniProt Q13131)", "test": "ProQinase radiometric kinase panel", "conditions": "mean of 2 exp."}, "STK23": {"target": "STK23 (Homo sapiens, UniProt Q9UPE1)", "test": "ProQinase radiometric kinase panel", "conditions": "mean of 2 exp."}, "INSR-R": {"target": "INSR-R (Homo sapiens, UniProt P14616)", "test": "ProQinase radiometric kinase panel", "conditions": "mean of 2 exp."}, "PKC-theta": {"target": "PKC-theta (Homo sapiens, UniProt Q04759)", "test": "ProQinase radiometric kinase panel", "conditions": "mean of 2 exp."}, "PKC-gamma": {"target": "PKC-gamma (Homo sapiens, UniProt P05129)", "test": "ProQinase radiometric kinase panel", "conditions": "mean of 2 exp."}, "CDK6/CycD1": {"target": "CDK6/CycD1 (Homo sapiens, UniProt Q00534)", "test": "ProQinase radiometric kinase panel", "conditions": "mean of 2 exp."}, "SRMS": {"target": "SRMS (Homo sapiens, UniProt Q9H3Y6)", "sequence (Q9H3Y6 whole entry)": "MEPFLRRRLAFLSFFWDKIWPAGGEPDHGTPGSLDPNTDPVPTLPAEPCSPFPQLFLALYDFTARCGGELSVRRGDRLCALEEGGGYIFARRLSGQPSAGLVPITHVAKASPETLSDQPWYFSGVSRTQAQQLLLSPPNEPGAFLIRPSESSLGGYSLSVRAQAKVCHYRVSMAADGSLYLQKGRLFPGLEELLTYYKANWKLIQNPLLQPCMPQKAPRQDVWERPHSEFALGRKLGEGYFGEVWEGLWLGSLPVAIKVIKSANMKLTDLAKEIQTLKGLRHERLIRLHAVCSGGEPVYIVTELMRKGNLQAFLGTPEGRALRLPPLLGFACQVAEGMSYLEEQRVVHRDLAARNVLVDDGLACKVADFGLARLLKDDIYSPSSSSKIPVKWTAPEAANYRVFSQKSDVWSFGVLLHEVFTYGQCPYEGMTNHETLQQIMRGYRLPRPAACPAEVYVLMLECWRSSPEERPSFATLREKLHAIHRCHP", "test": "ProQinase radiometric kinase panel", "conditions": "mean of 2 exp."}, "MAPKAPK3": {"target": "MAPKAPK3 (Homo sapiens, UniProt Q16644)", "test": "ProQinase radiometric kinase panel", "conditions": "mean of 2 exp."}, "BRK": {"target": "BRK (Homo sapiens, UniProt Q13882)", "sequence (Q13882 whole entry)": "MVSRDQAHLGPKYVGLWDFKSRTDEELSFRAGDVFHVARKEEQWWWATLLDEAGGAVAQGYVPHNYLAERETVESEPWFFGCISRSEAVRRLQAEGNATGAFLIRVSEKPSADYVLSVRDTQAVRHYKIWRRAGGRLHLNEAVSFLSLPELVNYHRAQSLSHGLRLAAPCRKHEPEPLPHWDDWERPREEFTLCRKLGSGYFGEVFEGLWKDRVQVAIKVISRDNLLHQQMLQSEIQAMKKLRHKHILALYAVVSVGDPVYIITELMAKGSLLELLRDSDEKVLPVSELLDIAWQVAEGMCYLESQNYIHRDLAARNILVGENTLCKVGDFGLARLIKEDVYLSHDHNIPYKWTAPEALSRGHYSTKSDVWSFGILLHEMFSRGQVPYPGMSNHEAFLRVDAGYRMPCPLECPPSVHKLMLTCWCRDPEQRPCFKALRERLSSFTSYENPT", "test": "ProQinase radiometric kinase panel", "conditions": "mean of 2 exp."}, "NEK3": {"target": "NEK3 (Homo sapiens, UniProt P51956)", "sequence (P51956 whole entry)": "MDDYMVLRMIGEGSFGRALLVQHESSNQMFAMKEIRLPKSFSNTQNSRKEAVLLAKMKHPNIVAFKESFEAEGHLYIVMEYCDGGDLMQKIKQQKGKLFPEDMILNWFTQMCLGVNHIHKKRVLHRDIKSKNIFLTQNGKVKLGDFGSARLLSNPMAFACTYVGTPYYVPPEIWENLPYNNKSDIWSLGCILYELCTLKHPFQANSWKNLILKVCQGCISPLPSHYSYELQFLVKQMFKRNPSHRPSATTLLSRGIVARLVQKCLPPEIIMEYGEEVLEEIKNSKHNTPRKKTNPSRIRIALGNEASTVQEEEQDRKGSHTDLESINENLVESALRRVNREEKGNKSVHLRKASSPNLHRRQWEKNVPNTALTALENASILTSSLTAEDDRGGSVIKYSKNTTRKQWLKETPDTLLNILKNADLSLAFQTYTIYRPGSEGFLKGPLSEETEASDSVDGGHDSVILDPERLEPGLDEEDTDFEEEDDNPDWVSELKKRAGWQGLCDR", "test": "ProQinase radiometric kinase panel", "conditions": "mean of 2 exp."}, "PKC-eta": {"target": "PKC-eta (Homo sapiens, UniProt P24723)", "test": "ProQinase radiometric kinase panel", "conditions": "mean of 2 exp."}, "CK1-gamma2": {"target": "CK1-gamma2 (Homo sapiens, UniProt P78368)", "test": "ProQinase radiometric kinase panel", "conditions": "mean of 2 exp."}, "ROCK2": {"target": "ROCK2 (Homo sapiens, UniProt O75116)", "test": "ProQinase radiometric kinase panel", "conditions": "mean of 2 exp."}, "RPS6KA4": {"target": "RPS6KA4 (Homo sapiens, UniProt O75676)", "test": "ProQinase radiometric kinase panel", "conditions": "mean of 2 exp."}, "ABL2": {"target": "ABL2 (Homo sapiens, UniProt P42684)", "sequence (P42684 whole entry)": "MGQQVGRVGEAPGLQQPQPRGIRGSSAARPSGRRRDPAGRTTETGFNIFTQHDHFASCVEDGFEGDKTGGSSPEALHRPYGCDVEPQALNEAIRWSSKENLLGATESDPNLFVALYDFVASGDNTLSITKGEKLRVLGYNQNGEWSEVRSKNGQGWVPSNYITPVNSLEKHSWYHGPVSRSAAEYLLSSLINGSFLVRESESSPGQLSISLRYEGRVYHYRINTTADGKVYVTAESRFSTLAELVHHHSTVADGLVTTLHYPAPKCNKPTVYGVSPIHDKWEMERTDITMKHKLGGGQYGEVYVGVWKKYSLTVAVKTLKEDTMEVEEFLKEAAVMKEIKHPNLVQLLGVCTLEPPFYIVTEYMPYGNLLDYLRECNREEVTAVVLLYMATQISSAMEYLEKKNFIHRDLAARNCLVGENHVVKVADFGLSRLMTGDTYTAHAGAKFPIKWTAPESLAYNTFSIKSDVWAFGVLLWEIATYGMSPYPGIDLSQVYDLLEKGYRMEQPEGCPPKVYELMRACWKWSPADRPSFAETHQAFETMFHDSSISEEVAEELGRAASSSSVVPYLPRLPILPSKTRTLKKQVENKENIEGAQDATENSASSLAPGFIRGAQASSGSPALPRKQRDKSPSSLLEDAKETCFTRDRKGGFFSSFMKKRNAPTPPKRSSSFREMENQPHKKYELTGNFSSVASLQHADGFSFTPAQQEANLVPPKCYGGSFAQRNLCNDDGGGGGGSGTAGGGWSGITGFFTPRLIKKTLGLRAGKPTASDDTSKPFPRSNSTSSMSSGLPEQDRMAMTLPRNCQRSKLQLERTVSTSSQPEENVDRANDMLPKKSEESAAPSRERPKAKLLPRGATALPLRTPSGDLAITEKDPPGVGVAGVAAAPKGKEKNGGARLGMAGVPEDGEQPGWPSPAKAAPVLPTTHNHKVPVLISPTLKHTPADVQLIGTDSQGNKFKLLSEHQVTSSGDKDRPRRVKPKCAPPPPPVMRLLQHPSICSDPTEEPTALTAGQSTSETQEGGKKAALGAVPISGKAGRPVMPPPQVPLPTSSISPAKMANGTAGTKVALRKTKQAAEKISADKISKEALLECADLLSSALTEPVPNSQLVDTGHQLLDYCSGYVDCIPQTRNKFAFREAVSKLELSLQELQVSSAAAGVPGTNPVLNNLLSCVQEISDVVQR", "test": "ProQinase radiometric kinase panel", "conditions": "mean of 2 exp."}, "EPHA1": {"target": "EPHA1 (Homo sapiens, UniProt P21709)", "test": "ProQinase radiometric kinase panel", "conditions": "mean of 2 exp."}, "JAK3": {"target": "JAK3 (Homo sapiens, UniProt P52333)", "test": "ProQinase radiometric kinase panel", "conditions": "mean of 2 exp."}, "MAP4K4": {"target": "MAP4K4 (Homo sapiens, UniProt O95819)", "test": "ProQinase radiometric kinase panel", "conditions": "mean of 2 exp."}, "Cell viability XTT assay": {"test": "Cell viability XTT assay", "format": "cell-based", "conditions": "rat, PC12 cells, read-out: Viability of treated cells relative to untreated control"}, "PC12 cells": {"system": "PC12 cells", "test": "Cell viability XTT assay", "format": "cell-based", "conditions": "PC12, up to 10 μM, 3 days"}, "MAP4K5": {"target": "MAP4K5 (Homo sapiens, UniProt Q9Y4K4)", "test": "ProQinase radiometric kinase panel", "conditions": "mean of 2 exp."}, "PKC-iota": {"target": "PKC-iota (Homo sapiens, UniProt P41743)", "test": "ProQinase radiometric kinase panel", "conditions": "mean of 2 exp."}, "ERK2": {"target": "ERK2 (Homo sapiens, UniProt P28482)", "test": "ProQinase radiometric kinase panel", "conditions": "mean of 2 exp."}, "IKK-alpha": {"target": "IKK-alpha (Homo sapiens, UniProt O15111)", "test": "ProQinase radiometric kinase panel", "conditions": "mean of 2 exp."}, "ABL1": {"target": "ABL1 (Homo sapiens, UniProt P00519)", "test": "ProQinase radiometric kinase panel", "conditions": "mean of 2 exp."}, "MINK1": {"target": "MINK1 (Homo sapiens, UniProt Q8N4C8)", "test": "ProQinase radiometric kinase panel", "conditions": "mean of 2 exp."}, "JNK1": {"target": "JNK1 (Homo sapiens, UniProt P45983)", "test": "ProQinase radiometric kinase panel", "conditions": "mean of 2 exp."}, "SNK": {"target": "SNK (Homo sapiens, UniProt Q9NYY3)", "test": "ProQinase radiometric kinase panel", "conditions": "mean of 2 exp."}, "TLK1": {"target": "TLK1 (Homo sapiens, UniProt Q9UKI8)", "test": "ProQinase radiometric kinase panel", "conditions": "mean of 2 exp."}, "NEK1": {"target": "NEK1 (Homo sapiens, UniProt Q96PY6)", "sequence (Q96PY6 whole entry)": "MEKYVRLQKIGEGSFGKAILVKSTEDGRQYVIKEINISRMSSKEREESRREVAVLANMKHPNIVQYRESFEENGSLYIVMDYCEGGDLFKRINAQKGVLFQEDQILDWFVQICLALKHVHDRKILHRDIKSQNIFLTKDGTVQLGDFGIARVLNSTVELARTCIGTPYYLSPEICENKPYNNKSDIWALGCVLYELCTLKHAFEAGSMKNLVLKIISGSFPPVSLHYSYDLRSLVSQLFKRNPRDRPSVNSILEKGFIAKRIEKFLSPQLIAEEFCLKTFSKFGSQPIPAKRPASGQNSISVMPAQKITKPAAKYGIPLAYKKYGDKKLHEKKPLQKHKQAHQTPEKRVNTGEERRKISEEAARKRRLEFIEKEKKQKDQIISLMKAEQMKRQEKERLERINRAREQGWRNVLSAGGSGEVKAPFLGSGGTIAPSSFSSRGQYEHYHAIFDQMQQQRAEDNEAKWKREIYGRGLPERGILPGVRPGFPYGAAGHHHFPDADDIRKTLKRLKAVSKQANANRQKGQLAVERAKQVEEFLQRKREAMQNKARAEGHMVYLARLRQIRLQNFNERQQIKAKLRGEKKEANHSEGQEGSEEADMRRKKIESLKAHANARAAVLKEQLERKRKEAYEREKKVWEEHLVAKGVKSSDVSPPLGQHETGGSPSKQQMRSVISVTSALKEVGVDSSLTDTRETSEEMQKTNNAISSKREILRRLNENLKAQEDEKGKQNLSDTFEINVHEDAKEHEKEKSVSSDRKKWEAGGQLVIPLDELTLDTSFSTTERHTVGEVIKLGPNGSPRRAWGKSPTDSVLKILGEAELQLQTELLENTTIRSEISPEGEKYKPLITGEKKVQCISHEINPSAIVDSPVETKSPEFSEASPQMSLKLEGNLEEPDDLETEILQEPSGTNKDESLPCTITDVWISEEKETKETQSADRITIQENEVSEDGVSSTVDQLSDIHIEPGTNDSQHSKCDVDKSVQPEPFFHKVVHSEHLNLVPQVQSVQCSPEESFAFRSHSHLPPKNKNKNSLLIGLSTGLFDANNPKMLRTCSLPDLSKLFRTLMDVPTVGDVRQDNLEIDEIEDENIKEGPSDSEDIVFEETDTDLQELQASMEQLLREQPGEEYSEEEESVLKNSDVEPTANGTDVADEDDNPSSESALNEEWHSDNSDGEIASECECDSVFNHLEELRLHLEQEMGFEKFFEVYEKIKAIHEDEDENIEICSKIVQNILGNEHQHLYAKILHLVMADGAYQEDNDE", "test": "ProQinase radiometric kinase panel", "conditions": "mean of 2 exp."}, "RPS6KA1": {"target": "RPS6KA1 (Homo sapiens, UniProt Q15418)", "test": "ProQinase radiometric kinase panel", "conditions": "mean of 2 exp."}},
  "data": [
    {"compound": "COc1ccc2c3ccnc(Cl)c3n(CC#N)c2c1", "note": "[AnnH75]", "values": [
      {"measurement": "residual activity at 1 µM, Mean", "setting": "LIMK1", "result": "57 % of control"},
      {"measurement": "residual activity at 1 µM, Mean", "setting": "PKC-delta", "result": "105 % of control"},
      {"measurement": "residual activity at 1 µM, Mean", "setting": "TYK2", "result": "96 % of control"},
      {"measurement": "residual activity at 1 µM, Mean", "setting": "SYK", "result": "101 % of control"},
      {"measurement": "residual activity at 1 µM, Mean", "setting": "SLK", "result": "99 % of control"},
      {"measurement": "residual activity at 1 µM, Mean", "setting": "AMPK-alph1", "result": "92 % of control"},
      {"measurement": "residual activity at 1 µM, Mean", "setting": "STK23", "result": "93 % of control"},
      {"measurement": "residual activity at 1 µM, Mean", "setting": "INSR-R", "result": "97 % of control"},
      {"measurement": "residual activity at 1 µM, Mean", "setting": "PKC-theta", "result": "113 % of control"},
      {"measurement": "residual activity at 1 µM, Mean", "setting": "PKC-gamma", "result": "108 % of control"},
      {"measurement": "residual activity at 1 µM, Mean", "setting": "CDK6/CycD1", "result": "95 % of control"},
      {"measurement": "residual activity at 1 µM, Mean", "setting": "SRMS", "result": "92 % of control"},
      {"measurement": "residual activity at 1 µM, Mean", "setting": "MAPKAPK3", "result": "94 % of control"},
      {"measurement": "residual activity at 1 µM, Mean", "setting": "BRK", "result": "97 % of control"},
      {"measurement": "residual activity at 1 µM, Mean", "setting": "NEK3", "result": "91 % of control"},
      {"measurement": "residual activity at 1 µM, Mean", "setting": "PKC-eta", "result": "79 % of control"},
      {"measurement": "residual activity at 1 µM, Mean", "setting": "CK1-gamma2", "result": "82 % of control"},
      {"measurement": "residual activity at 1 µM, Mean", "setting": "ROCK2", "result": "79 % of control"},
      {"measurement": "residual activity at 1 µM, Mean", "setting": "RPS6KA4", "result": "95 % of control"},
      {"measurement": "residual activity at 1 µM, Mean", "setting": "ABL2", "result": "96 % of control"},
      {"measurement": "residual activity at 1 µM, Mean", "setting": "EPHA1", "result": "92 % of control"},
      {"measurement": "residual activity at 1 µM, Mean", "setting": "JAK3", "result": "101 % of control"},
      {"measurement": "residual activity at 1 µM, Mean", "setting": "MAP4K4", "result": "85 % of control"},
      {"measurement": "viability at 3 days, 1 µM", "setting": "Cell viability XTT assay; PC12, 1 μM", "result": 94, "unit": "%"},
      {"measurement": "viability at 3 days, 3 µM", "setting": "Cell viability XTT assay; PC12, 3 μM", "result": 100, "unit": "%"},
      {"measurement": "viability at 3 days, 10 µM", "setting": "Cell viability XTT assay; PC12, 10 μM", "result": 95, "unit": "%"},
      {"measurement": "cytotoxicity", "setting": "PC12 cells", "result": "minimal cytotoxicity"},
      {"measurement": "residual activity at 1 µM, Mean", "setting": "MAP4K5", "result": "84 % of control"},
      {"measurement": "residual activity at 1 µM, Mean", "setting": "PKC-iota", "result": "102 % of control"},
      {"measurement": "residual activity at 1 µM, Mean", "setting": "ERK2", "result": "87 % of control"},
      {"measurement": "residual activity at 1 µM, Mean", "setting": "IKK-alpha", "result": "60 % of control"},
      {"measurement": "residual activity at 1 µM, Mean", "setting": "ABL1", "result": "95 % of control"},
      {"measurement": "residual activity at 1 µM, Mean", "setting": "MINK1", "result": "92 % of control"},
      {"measurement": "residual activity at 1 µM, Mean", "setting": "JNK1", "result": "99 % of control"},
      {"measurement": "residual activity at 1 µM, Mean", "setting": "SNK", "result": "92 % of control"},
      {"measurement": "residual activity at 1 µM, Mean", "setting": "TLK1", "result": "91 % of control"},
      {"measurement": "residual activity at 1 µM, Mean", "setting": "NEK1", "result": "101 % of control"},
      {"measurement": "residual activity at 1 µM, Mean", "setting": "RPS6KA1", "result": "63 % of control"}
    ]}
  ]
}
